# In patent publication KR20210056931A, “피리메타민을 유효성분으로 포함하는 면역 관련 질환의 치료 또는 예방용 약학 조성물” (priority 2019, dated 2021):
# What was measured:
# [1] = test system: rheumatoid arthritis model, DBA-1J Mice [류마티스 관절염 모델]; experiment: Paw edema in rheumatoid arthritis animal model, Experiment 5; type: in vivo, mouse
# [2] = test system: STAT3; experiment: STAT3 activity (nuclear translocation) in Raw264.7, Experiment 3; type: cell-based; details: 50 ng/ml, 2 h pretreatment; LPS 100 ng/ml 16 h; Fig. 6
# [3] = test system: rheumatoid arthritis model, DBA-1J Mice [류마티스 관절염 모델]; experiment: Arthritis score in rheumatoid arthritis animal model, dose regimen study, Experiment 6; type: in vivo, mouse
# [4] = test system: TNF-α; experiment: TNF-α expression inhibition in Raw264.7, comparison with tofacitinib, Experiment 2-2; type: cell-based; details: for TNF-α expression: 6 h pretreatment, LPS 10 ng/mL 16 h
# [5] = test system: rheumatoid arthritis model, DBA-1J Mice [류마티스 관절염 모델]; experiment: Arthritis score in rheumatoid arthritis animal model, Experiment 5; type: in vivo, mouse
smiles,measurement,setting,value
"CCc1nc(N)nc(N)c1-c1ccc(Cl)cc1 [피리메타민, Pyrimethamine]","Paw edema, LEFT","[1]; Day 0, G4: Py 10 mg/kg/day PO",0.11 ± 0.01 mL
same,"Paw edema, RIGHT","[1]; Day 0, G4: Py 10 mg/kg/day PO",0.10 ± 0.00 mL
same,"Paw edema, LEFT","[1]; Day 0, G5: Py 30 mg/kg/day PO",0.11 ± 0.02 mL
same,"Paw edema, RIGHT","[1]; Day 0, G5: Py 30 mg/kg/day PO",0.10 ± 0.01 mL
same,"Paw edema, LEFT","[1]; Day 14, G4: Py 10 mg/kg/day PO",0.15 ± 0.03 mL
same,"Paw edema, RIGHT","[1]; Day 14, G4: Py 10 mg/kg/day PO",0.12 ± 0.01 mL
same,"Paw edema, LEFT","[1]; Day 14, G5: Py 30 mg/kg/day PO",0.11 ± 0.03 mL
same,"Paw edema, RIGHT","[1]; Day 14, G5: Py 30 mg/kg/day PO",0.11 ± 0.02 mL
same,STAT3 nuclear translocation,[2],LPS 16 시간 자극에 의한 STAT3의 핵이동을 억제함
same,Arthritis score,"[3]; Day 0, G7: Py 1 mg/kg/day QD IP",2.5±1.0 total score
same,Arthritis score,"[3]; Day 0, G8: Py 1 mg/kg/day BID PO",2.5±1.0 total score
same,Arthritis score,"[3]; Day 0, G9: Py 1 mg/kg/day QD PO",2.5±1.0 total score
same,Arthritis score,"[3]; Day 0, G10: Py 3 mg/kg/day BID PO",2.5±1.0 total score
same,Arthritis score,"[3]; Day 0, G11: Py 5 mg/kg QD PO",2.5±1.2 total score
same,Arthritis score,"[3]; Day 0, G12: Py 15 mg/kg/day QD PO",2.5±1.0 total score
same,Arthritis score,"[3]; Day 2, G7: Py 1 mg/kg/day QD IP",4.7±1.6 total score
same,Arthritis score,"[3]; Day 2, G8: Py 1 mg/kg/day BID PO",4.8±0.8 total score
same,Arthritis score,"[3]; Day 2, G9: Py 1 mg/kg/day QD PO",4.7±1.4 total score
same,Arthritis score,"[3]; Day 2, G10: Py 3 mg/kg/day BID PO",4.5±1.0 total score
same,Arthritis score,"[3]; Day 2, G11: Py 5 mg/kg QD PO",4.3±2.0 total score
same,Arthritis score,"[3]; Day 2, G12: Py 15 mg/kg/day QD PO",4.2±1.2 total score
same,Arthritis score,"[3]; Day 5, G7: Py 1 mg/kg/day QD IP",7.2±1.9 total score
same,Arthritis score,"[3]; Day 5, G8: Py 1 mg/kg/day BID PO",7.0±1.3 total score
same,Arthritis score,"[3]; Day 5, G9: Py 1 mg/kg/day QD PO",6.8±1.7 total score
same,Arthritis score,"[3]; Day 5, G10: Py 3 mg/kg/day BID PO",6.2±2.4 total score
same,Arthritis score,"[3]; Day 5, G11: Py 5 mg/kg QD PO",5.8±2.5 total score
same,Arthritis score,"[3]; Day 5, G12: Py 15 mg/kg/day QD PO",5.5±1.5 total score
same,Arthritis score,"[3]; Day 7, G7: Py 1 mg/kg/day QD IP",9.2±1.5 total score
same,Arthritis score,"[3]; Day 7, G8: Py 1 mg/kg/day BID PO",9.5±1.5 total score
same,Arthritis score,"[3]; Day 7, G9: Py 1 mg/kg/day QD PO",9.3±2.0 total score
same,Arthritis score,"[3]; Day 7, G10: Py 3 mg/kg/day BID PO",7.8±2.9 total score
same,Arthritis score,"[3]; Day 7, G11: Py 5 mg/kg QD PO",6.7±2.2 total score
same,Arthritis score,"[3]; Day 7, G12: Py 15 mg/kg/day QD PO",6.3±2.0 total score
same,Arthritis score,"[3]; Day 9, G7: Py 1 mg/kg/day QD IP",9.8±1.9 total score
same,Arthritis score,"[3]; Day 9, G8: Py 1 mg/kg/day BID PO",10.3±2.2 total score
same,Arthritis score,"[3]; Day 9, G9: Py 1 mg/kg/day QD PO",10.5±2.7 total score
same,Arthritis score,"[3]; Day 9, G10: Py 3 mg/kg/day BID PO",8.2±2.9 total score
same,Arthritis score,"[3]; Day 9, G11: Py 5 mg/kg QD PO",7.5±3.0 total score
same,Arthritis score,"[3]; Day 9, G12: Py 15 mg/kg/day QD PO",7.5±2.1 total score
same,Arthritis score,"[3]; Day 12, G7: Py 1 mg/kg/day QD IP",11.2±2.5 total score
same,Arthritis score,"[3]; Day 12, G8: Py 1 mg/kg/day BID PO",11.7±2.7 total score
same,Arthritis score,"[3]; Day 12, G9: Py 1 mg/kg/day QD PO",12.0±2.6 total score
same,Arthritis score,"[3]; Day 12, G10: Py 3 mg/kg/day BID PO",9.8±2.9 total score
same,Arthritis score,"[3]; Day 12, G11: Py 5 mg/kg QD PO",8.8±2.5 total score
same,Arthritis score,"[3]; Day 12, G12: Py 15 mg/kg/day QD PO",7.7±2.1 total score
same,Arthritis score,"[3]; Day 14, G7: Py 1 mg/kg/day QD IP",11.7±2.7 total score
same,Arthritis score,"[3]; Day 14, G8: Py 1 mg/kg/day BID PO",12.3±2.9 total score
same,Arthritis score,"[3]; Day 14, G9: Py 1 mg/kg/day QD PO",12.7±2.9 total score
same,Arthritis score,"[3]; Day 14, G10: Py 3 mg/kg/day BID PO",10.5±3.0 total score
same,Arthritis score,"[3]; Day 14, G11: Py 5 mg/kg QD PO",9.5±2.6 total score
same,Arthritis score,"[3]; Day 14, G12: Py 15 mg/kg/day QD PO",8.2±2.0 total score
same,Arthritis score (in words),"[3]; Py 1 mg/kg/day QD PO and IP, 1 and 3 mg/kg/day BID PO, 5 mg/kg/day QD PO",관절염 지수가 개선되지 않은
same,Arthritis score (in words),[3]; Py 15 mg/kg/day QD PO,관절염 지수가 현저하게 감소
same,TNF-α expression,[4]; PYR 50 ng/mL,185.3 pg/mL
same,TNF-α expression,[4]; PYR 100 ng/mL,53.3 pg/mL
same,TNF-α expression compared with tofacitinib,"[4]; Raw264.7, LPS 10 ng/ml 16 h",토파시티닙과 달리 TNF-α의 발현량을 직접적으로 억제
same,Arthritis score,"[5]; Day 0, G4: Py 10 mg/kg/day PO",2.3±1.6 Total score
same,Arthritis score,"[5]; Day 0, G5: Py 30 mg/kg/day PO",2.3±1.4 Total score
same,Arthritis score,"[5]; Day 2, G4: Py 10 mg/kg/day PO",4.0±1.6 Total score
same,Arthritis score,"[5]; Day 2, G5: Py 30 mg/kg/day PO",2.7±1.8 Total score
same,Arthritis score,"[5]; Day 4, G4: Py 10 mg/kg/day PO",4.6±1.8 Total score
same,Arthritis score,"[5]; Day 4, G5: Py 30 mg/kg/day PO",4.0±2.7 Total score
same,Arthritis score,"[5]; Day 7, G4: Py 10 mg/kg/day PO",5.4±2.4 Total score
same,Arthritis score,"[5]; Day 7, G5: Py 30 mg/kg/day PO",4.0±2.7 Total score
same,Arthritis score,"[5]; Day 9, G4: Py 10 mg/kg/day PO",6.1±2.5 Total score
same,Arthritis score,"[5]; Day 9, G5: Py 30 mg/kg/day PO",5.3±1.6 Total score
same,Arthritis score,"[5]; Day 11, G4: Py 10 mg/kg/day PO",6.7±2.1 Total score
same,Arthritis score,"[5]; Day 11, G5: Py 30 mg/kg/day PO",5.4±1.5 Total score
same,Arthritis score,"[5]; Day 14, G4: Py 10 mg/kg/day PO",7.3±2.1 Total score
same,Arthritis score,"[5]; Day 14, G5: Py 30 mg/kg/day PO",5.6±1.4 Total score
same,Arthritis score (in words),"[5]; pyrimethamine groups, 10 and 30 mg/kg/day PO",관절염 지수가 현저하게 감소
same,Arthritis score compared with methotrexate (in words),[5]; pyrimethamine high dose (30 mg/kg/day) PO,메토트렉세이트 투여군에 비해 관절염 지수가 현저하게 낮은
